These results are taken from PubChem BioAssay (NCI).

Structures are written as SMILES. Several values for one entry are separate records, joined by “and”; a condition that tells them apart may be missing. Equal entries are not always repeated.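 Cultured in 96-well plates, cells were exposed to test compound for 48 hours across five concentrations. GI50: concentration for 50% inhibition of growth. TGI marks complete inhibition of growth.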 A value given as a limit tells only on which side of the number the result lay.

For the first assay, the system named is IGROV1 ovarian. Briefly: inhibition of tumour cell growth, NCI panel, 48 h.
For `COc1ccc(F)c(F)c1C(=O)c1cnc(NC2CCN(S(C)(=O)=O)CC2)nc1N`, the GI50 was 1.06 µM and 0.387 µM; the TGI was > 100 µM.

In the case of `CC1(C)CC(=O)C(CC2C(=O)c3ccccc3C2=O)C(=O)C1`, the TGI was > 100 µM.

Consider `Nc1cc(-c2ccc(Cl)cc2)nn1-c1nnc(/C=C/c2ccco2)c(=O)[nH]1`, for which the GI50 is 4.89 µM and the TGI came out at 37.8 µM.

`Cc1c(C)c(CC(=O)N2CC2)c(C)c(C)c1CC(=O)N1CC1` displayed a TGI of 43.2 µM.

Take `Cc1ccc(C)c(N2C(=O)C(=O)C(c3nc4ccccc4s3)C(=Nc3cccc4c(=O)[nH][nH]c(=O)c34)C2=O)c1` (stereo not drawn): the TGI is > 100 µM.

Take `CCCCCCCCCCCCCCCCCCOCC(COCCOCC[N+]1(CCCCCC(=O)[O-])CCCC1)Oc1ncccn1` (stereo not drawn): the TGI came to 3.83 µM.

As to `CCOc1ccc(Nc2c3ccccc3nc3ccccc23)cc1`, the GI50 was 0.758 µM and 0.32 µM; the TGI was 14.9 µM and 13.4 µM.

Regarding `CC(C)(C)NCC(COc1ccc([N+](=O)[O-])cc1)OP(c1ccccc1)c1ccccc1` (stereo not drawn), the TGI was > 100 µM.

Regarding `CCNCCNc1cc(-c2ccc(C#N)cc2)c(C#N)c2nc3ccccc3n12`, the GI50 is 4.53 µM and the TGI is 18 µM.

For `Cc1cccc(C)c1N1C(=O)C(=O)C(c2nc3ccccc3s2)C(=Nc2cccc3c(=O)[nH][nH]c(=O)c23)C1=O` (stereo not drawn), the TGI was > 100 µM.

As to `[2H]c1nc(=Nc2cc(NC(=O)C=C)c(N(C)CCN(C)C)cc2OC)[nH]c(-c2cn(C([2H])([2H])[2H])c3ccccc23)c1[2H]`, the GI50 was 0.122 µM and the TGI was found to be 2.04 µM.

For the compound `COc1cc2nc(-c3ccc(C(F)(F)F)cc3)cc(OCCCN3CCCC3)c2cc1OC`, the GI50 was 0.593 µM and the TGI was 14.5 µM.

With `COc1ccc(C(=O)c2nc3ccccc3n2CC(=O)c2ccc(Cl)cc2)cc1`, the GI50 was 6.09 µM and the TGI is > 100 µM.

The compound `COc1cc(C2c3cc4c(cc3[C@@H](Nc3ccc5c(c3)OCCO5)C3COC(=O)[C@H]23)OCO4)cc(OC)c1O` (stereo partly drawn) showed a TGI of 16.6 µM.

`Cn1c(=O)nc2n(-c3ccc(Cl)c(C(F)(F)F)c3)c3ccccc3nc-2c1=O`: the TGI is > 100 µM.

`OCc1ccc(N2CCOCC2)cc1Cl`: the GI50 is 6.73 µM and the TGI was 32.6 µM.

With `Cc1nc(-c2cccnc2)sc1C(=O)/C=C/c1cccc([N+](=O)[O-])c1`, the TGI was > 100 µM.

A further assay has as its system NCI-H226 lung. Briefly: inhibition of tumour cell growth, NCI panel, 48 h.
With `COc1ccc(F)c(F)c1C(=O)c1cnc(NC2CCN(S(C)(=O)=O)CC2)nc1N`, the GI50 is 1.28 µM and 0.408 µM; the TGI was > 24.4 µM.

Take `CC1(C)CC(=O)C(CC2C(=O)c3ccccc3C2=O)C(=O)C1`: the TGI is > 100 µM.

`Nc1cc(-c2ccc(Cl)cc2)nn1-c1nnc(/C=C/c2ccco2)c(=O)[nH]1`: the GI50 is 10.1 µM and the TGI came to 67.4 µM.

In turn, `Cc1c(C)c(CC(=O)N2CC2)c(C)c(C)c1CC(=O)N1CC1` came in with a TGI of 43.6 µM.

Turning to `Cc1ccc(C)c(N2C(=O)C(=O)C(c3nc4ccccc4s3)C(=Nc3cccc4c(=O)[nH][nH]c(=O)c34)C2=O)c1` (stereo not drawn), the TGI is > 100 µM.

Compound `CCCCCCCCCCCCCCCCCCOCC(COCCOCC[N+]1(CCCCCC(=O)[O-])CCCC1)Oc1ncccn1` (stereo not drawn) returned a TGI of 26.7 µM.

As for `CCOc1ccc(Nc2c3ccccc3nc3ccccc23)cc1`, the GI50 is 1.33 µM and 1.29 µM; the TGI is 3.83 µM and 4.06 µM.

`CC(C)(C)NCC(COc1ccc([N+](=O)[O-])cc1)OP(c1ccccc1)c1ccccc1` (stereo not drawn) registered a TGI of 94.7 µM.

On to `CCNCCNc1cc(-c2ccc(C#N)cc2)c(C#N)c2nc3ccccc3n12`, for which the GI50 was 2.59 µM and the TGI worked out at 11.9 µM.

As to `Cc1cccc(C)c1N1C(=O)C(=O)C(c2nc3ccccc3s2)C(=Nc2cccc3c(=O)[nH][nH]c(=O)c23)C1=O` (stereo not drawn), the TGI is > 100 µM.

Turning to `[2H]c1nc(=Nc2cc(NC(=O)C=C)c(N(C)CCN(C)C)cc2OC)[nH]c(-c2cn(C([2H])([2H])[2H])c3ccccc23)c1[2H]`, the GI50 is 2.45 µM and the TGI was 26 µM.

On to `COc1cc2nc(-c3ccc(C(F)(F)F)cc3)cc(OCCCN3CCCC3)c2cc1OC`, for which the GI50 is 0.737 µM and the TGI came to 10.6 µM.

Take `COc1ccc(C(=O)c2nc3ccccc3n2CC(=O)c2ccc(Cl)cc2)cc1`: the GI50 is > 28.4 µM and the TGI is > 100 µM.

As to `COc1cc(C2c3cc4c(cc3[C@@H](Nc3ccc5c(c3)OCCO5)C3COC(=O)[C@H]23)OCO4)cc(OC)c1O` (stereo partly drawn), the TGI turned out to be 1.94 µM.

As to `Cn1c(=O)nc2n(-c3ccc(Cl)c(C(F)(F)F)c3)c3ccccc3nc-2c1=O`, the TGI is > 100 µM.

As for `OCc1ccc(N2CCOCC2)cc1Cl`, the GI50 is 0.705 µM and the TGI was found to be 2.37 µM.

As for `Cc1nc(-c2cccnc2)sc1C(=O)/C=C/c1cccc([N+](=O)[O-])c1`, the TGI was > 100 µM.

For another assay, the system named is SF-539 CNS. Briefly: inhibition of tumour cell growth, NCI panel, 48 h.
In the case of `COc1ccc(F)c(F)c1C(=O)c1cnc(NC2CCN(S(C)(=O)=O)CC2)nc1N`, the GI50 is 0.536 µM and 0.406 µM; the TGI was 3.13 µM and 3.07 µM.

For the compound `CC1(C)CC(=O)C(CC2C(=O)c3ccccc3C2=O)C(=O)C1`, the TGI was > 100 µM.

`Nc1cc(-c2ccc(Cl)cc2)nn1-c1nnc(/C=C/c2ccco2)c(=O)[nH]1`: the GI50 was 4.4 µM and the TGI was 22.4 µM.

In turn, `Cc1c(C)c(CC(=O)N2CC2)c(C)c(C)c1CC(=O)N1CC1` showed a TGI of 16.5 µM.

Take `Cc1ccc(C)c(N2C(=O)C(=O)C(c3nc4ccccc4s3)C(=Nc3cccc4c(=O)[nH][nH]c(=O)c34)C2=O)c1` (stereo not drawn): the TGI is > 100 µM.

The compound `CCCCCCCCCCCCCCCCCCOCC(COCCOCC[N+]1(CCCCCC(=O)[O-])CCCC1)Oc1ncccn1` (stereo not drawn) gave a TGI of 15.8 µM.

In the case of `CCOc1ccc(Nc2c3ccccc3nc3ccccc23)cc1`, the GI50 was 0.51 µM and 0.419 µM; the TGI is 11.8 µM and 10.2 µM.

Turning to `CC(C)(C)NCC(COc1ccc([N+](=O)[O-])cc1)OP(c1ccccc1)c1ccccc1` (stereo not drawn), the TGI is > 100 µM.

As to `CCNCCNc1cc(-c2ccc(C#N)cc2)c(C#N)c2nc3ccccc3n12`, the GI50 is 1.77 µM and the TGI is 3.49 µM.
